Assay results reported in US20250129073A1, “INHIBITOR OF RECEPTOR-INTERACTING PROTEIN KINASE 1, AND PREPARATION METHOD AND USE THEREFOR” (CHINA PHARMACEUTICAL UNIVERSITY, priority 2021, published 2025).

Experiments:
RIPK1 kinase = RIPK1 kinase (Homo sapiens (Human), UniProt Q13546); experiment: RIPK1 kinase inhibitory assay (ADP-Glo); type: biochemical; settings: for inhibition at 10 µM: 10 μM compound, read-out: Inhibition rate of RIPK1 at 10 μM (%)
Experimental: Materials and Instruments: ADP-Glo kinase kit (purchased from Promega), RIPK1 GST-Th-Tag (purchased from Bps Bioscience), MBP substrate (purchased from Millipore), nunc 384-well plate, ATP fluorescence analyzer Paradigm detection platform (purchased from Beckman coulter)
The compounds were diluted in DMSO and configured into a solution with a final concentration of 10 mM; Dilute RIP1 kinase from 140 ng/μL to 20 ng/μL for use. Dilute 10 mM of ATP to 100 μM for later use; Dilute 5 mg/mL of MBP to 1 mg/mL for later use. Appropriate embodiments were added into the well of the 384-well plate, 10 μl […] ATP was evenly mixed with 1 μl 1 mg/mL MB P, the mixed solution was added to the well, and 2 μL […] RIP1 kinase was added to the hole, and then incubated at room temperature for 1 h. Subsequently, 5 μL ADP-Glo reagent was added to each well and incubated at room temperature for 40 min. Then, 10 μL ADP-Glo detection reagent was added to each well and incubated at room temperature for 30 min. Finally, the RLU value (relative light unit) of each well was measured by ATP fluorometer, and each sample was repeated twice. Inhibition rate=(RLU value of blank group−RLU value of drug administration group)/RLU value of blank group×100%.

U937 cells = experiment: Cell anti-necroptosis activity assay (LPS + Z-VAD-FMK, CCK8); type: cell-based; settings: Homo sapiens, U-937; PMA-differentiated U937, LPS 100 ng/ml + Z-VAD-FMK 20 μM, 24 h; read-out: EC50 of inhibition of necroptosis
Experimental: Materials: U937 cell line (human myeloid leukemia cells), RPMI 1640 medium (purchased from Gibco, USA), penicillin-streptomycin double antibody (purchased from Gibco, USA), fetal bovine serum (purchased from genetic, USA), tetradecanoylphorbol acetate (purchased from biyuntian Biotechnology Co., Ltd.), CCK8 cell proliferation detection kit (purchased from biyuntian Biotechnology Co., Ltd), Z-VAD-FMK (from APExBIO, USA) and LPS (from Sigma, USA).
U937 cells were cultured in RPMI 1640 containing 10% heat inactivated fetal bovine serum and 1% penicillin-streptomycin in a constant temperature cell incubator at 37° C. and 5% CO2, and subcultured every 1-2 days. Human monocytic cell line U937 cells could be induced to differentiate into mature monocytes/macrophages after stimulation with tetradecanoylphorbol acetate (PMA). The cells in the logarithmic growth phase were seeded in 96 well plates at a density of 4×10^4 cells/well and cultured. PMA 100 ng/ml was added for 24 h, and then the fresh medium was changed. The necroptosis model was constructed by stimulation of LPS and caspase inhibitor Z-VAD-FMK. In the experimental groups, LPS (100 ng/ml) was added for 1 hour, and then the solvent control (DMSO) or different concentrations of compounds to be tested (30 μM, 10 μM, 3 μM, 1 μM, 300 nM, 100 nM, 30 nM 7 concentrations in total) for 1 h, and then the experimental groups were treated with caspase inhibitor Z-VAD-FMK (20 μM). The cell viability was detected after 24 h of culture. The control groups were not treated with LPS, drugs and Z-VAD-FMK. No cells were added to the blank hole, only the culture medium. Each group is set with 4 parallel. CCK8 cell proliferation assay kit was used to detect the cell viability and survival rate, and the operation was carried out according to the kit instructions. The cell supernatant was added with 10 μL CCK8 detection reagent, and the cell absorbance (450 nm) was detected by a microplate reader after 0.5 h. Calculate the cell death rate (%)=(average absorbance of control well−average absorbance of experimental group)/(average absorbance of control well−average absorbance of the blank well)×100. Finally, the half effective concentration (EC50) of the drug was calculated by GraphPad Prism 7.0® software.

[1] = system: rat model of ischemic stroke (MCAO); experiment: Rat MCAO cerebral ischemia/reperfusion model of ischemic stroke; type: in vivo; settings: tMCAO rats
Experimental: Animals: SPF-grade male Sprague Dawley (SD) rats (purchased from Beijing Weitonglihua Experimental Animal Technology Co., Ltd.). Rats were fed with a free diet, 12 h: 12 h circadian rhythm.
Material: 2,3,5-Triphenyltetrazolium chloride (purchased from Beijing Solebo Technology Co., Ltd.), N,N-Dimethylacetamide (purchased from Shanghai Aladdin Biochemical Technology Co., Ltd.), castor oil polyoxyethylene ether (purchased from Shanghai McLean Biochemical Technology Co., Ltd.), sodium chloride (purchased from Bioengineering (Shanghai) Co., Ltd.), isoflurane (purchased from Shenzhen ruiwode Life Technology Co., Ltd.), and Sodium dihydrogen phosphate (purchased from Sinopharm group), disodium hydrogen phosphate (purchased from Sinopharm group), paraformaldehyde (purchased from biotechnology (Shanghai) Co., Ltd.) and thread bolt (purchased from Beijing Xinong Technology Co., Ltd.).
Methods: A rat model of ischemic stroke was established by middle cerebral artery occlusion (MCAO) of cerebral ischemia/reperfusion: Healthy male SD rats (weighing 260±40 g) were anesthetized with 5% isoflurane and maintained with 1.5%-2% isoflurane. The rats were fixed in the supine position, and the right common carotid artery, internal carotid artery and external carotid artery were separated through the median neck incision and threaded for standby. The proximal end of the common carotid artery and the external carotid artery were ligated, and the internal carotid artery was clamped with an artery clamp. The suture plug was cut and inserted at about 0.5 cm from the bifurcation of the common carotid artery. The artery clamp was released, and the suture plug was delivered until the blood flow of the middle cerebral artery was blocked. After 60 minutes of ischemia, the suture plug was removed to restore blood flow. The rectal temperature was maintained at 37±0.5° C. during the operation. After 48 hours of ischemia/reperfusion, the neurological function was evaluated by modified neurological severity score (MNSs). The cerebral infarction volume was detected by TTC staining, and the brain water content was detected to evaluate the cerebral edema.

[2] = 2.5 mg/kg and 5 mg/kg bid, 48 h after ischemia/reperfusion

Chain of RIPK1 kinase (Q13546 whole entry): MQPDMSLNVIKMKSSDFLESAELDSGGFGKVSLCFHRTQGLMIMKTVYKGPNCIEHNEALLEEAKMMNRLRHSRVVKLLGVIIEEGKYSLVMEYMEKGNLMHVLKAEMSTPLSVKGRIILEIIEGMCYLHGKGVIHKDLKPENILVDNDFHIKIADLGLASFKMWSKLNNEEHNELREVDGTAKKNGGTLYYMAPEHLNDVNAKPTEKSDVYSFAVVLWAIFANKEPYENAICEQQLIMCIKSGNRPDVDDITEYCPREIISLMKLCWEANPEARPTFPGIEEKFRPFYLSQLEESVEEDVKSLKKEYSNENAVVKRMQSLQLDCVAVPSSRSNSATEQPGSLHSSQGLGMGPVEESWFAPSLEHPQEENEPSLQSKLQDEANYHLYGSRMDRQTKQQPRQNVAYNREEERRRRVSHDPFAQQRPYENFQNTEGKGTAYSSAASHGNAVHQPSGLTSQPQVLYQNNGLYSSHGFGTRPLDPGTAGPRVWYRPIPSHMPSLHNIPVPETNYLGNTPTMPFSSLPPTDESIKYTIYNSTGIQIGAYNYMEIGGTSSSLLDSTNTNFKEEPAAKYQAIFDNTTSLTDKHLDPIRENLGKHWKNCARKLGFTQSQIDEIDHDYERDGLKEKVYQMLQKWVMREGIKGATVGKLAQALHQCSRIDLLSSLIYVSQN

| SMILES | IC50 (RIPK1 kinase) [nM] | inhibition at 10 µM (RIPK1 kinase) [%] | EC50 (U937 cells) [nM] | nerve injury score [1, 2] | water content in the ischemic side [1, 2] | infarct volume ([1]; 2.5 mg/kg and 5 mg/kg bid, 48 h after ischemia/reperfusion, TTC staining) | protective effect on cerebral ischemia injury compared with edaravone ([1]; 5 mg/kg bid vs positive control edaravone 5 mg/kg QD) |
| --- | --- | --- | --- | --- | --- | --- | --- |
| O=C(c1ccccc1)N1CCC2(CC1)CCN(Cc1ccccc1F)C2=O [Compound 31, 8-benzoyl-2-(2-fluorobenzyl)-2,8-diazaspiro[4.5]decan-1-one] | 186 | > 50 | 1050 | significantly reduce | significantly reduce | significantly reduce | stronger protective effect |
| Cn1ccc2ccc(C(=O)N3CCC4(CC3)CCN(Cc3cc(F)ccc3F)C4=O)cc21 [Compound 49, 2-(2,5-difluorobenzyl)-8-(1-methyl-1H-indole-6-carbonyl)-2,8-diazaspiro[4.5]decan-1-one] | 92 | > 50 | 1110 |  |  |  |  |
| Cn1ccc2ccc(C(=O)N3CCC4(CC3)CCN(Cc3ccccc3F)C4=O)cc21 [Compound 50, 2-(2-fluorobenzyl)-8-(1-methyl-1H-indole-6-carbonyl)-2,8-diazaspiro decan-1-one] | 102 | > 50 | 1560 |  |  |  |  |
